In ChEMBL document CHEMBL1130820, “Search for alpha 1-adrenoceptor subtypes selective antagonists: design, synthesis and biological activity of cystazosin, an alpha 1D-adrenoceptor antagonist” (Bioorg Med Chem Lett, 1998):

Assays:
[1] = biological target: T1, Adrenergic receptor alpha-2 (Rattus norvegicus, UniProt P22086+P19328+P22909); assay: Antagonistic affinity against native rat cortex Alpha-2 adrenergic receptor; assay type: functional, tissue-based
T1 sequence (P22086 whole entry): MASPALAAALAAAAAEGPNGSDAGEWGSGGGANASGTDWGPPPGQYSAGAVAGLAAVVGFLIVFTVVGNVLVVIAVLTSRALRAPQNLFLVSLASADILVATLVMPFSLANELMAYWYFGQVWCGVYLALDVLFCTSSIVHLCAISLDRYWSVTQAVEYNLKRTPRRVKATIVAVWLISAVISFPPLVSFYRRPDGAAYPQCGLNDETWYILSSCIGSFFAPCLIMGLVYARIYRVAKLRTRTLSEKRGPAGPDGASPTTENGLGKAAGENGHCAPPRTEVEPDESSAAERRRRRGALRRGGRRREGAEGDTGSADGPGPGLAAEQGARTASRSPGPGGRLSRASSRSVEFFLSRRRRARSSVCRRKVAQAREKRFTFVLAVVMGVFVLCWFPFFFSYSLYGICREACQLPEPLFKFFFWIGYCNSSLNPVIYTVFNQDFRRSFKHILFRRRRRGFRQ
T1 sequence (P19328 whole entry): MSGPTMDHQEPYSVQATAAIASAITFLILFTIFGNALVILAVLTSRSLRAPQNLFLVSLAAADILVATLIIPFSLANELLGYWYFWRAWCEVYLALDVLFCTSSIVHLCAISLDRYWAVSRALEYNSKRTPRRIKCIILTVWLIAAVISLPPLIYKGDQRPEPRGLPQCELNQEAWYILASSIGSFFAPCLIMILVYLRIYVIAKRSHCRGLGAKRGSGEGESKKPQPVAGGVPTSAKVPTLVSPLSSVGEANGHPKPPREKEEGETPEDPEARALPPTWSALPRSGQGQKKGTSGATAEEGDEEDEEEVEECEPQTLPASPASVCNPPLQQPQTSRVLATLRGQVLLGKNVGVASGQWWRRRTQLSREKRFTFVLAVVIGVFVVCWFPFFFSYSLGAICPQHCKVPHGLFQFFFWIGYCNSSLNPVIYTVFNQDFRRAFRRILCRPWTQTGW
T1 sequence (P22909 whole entry): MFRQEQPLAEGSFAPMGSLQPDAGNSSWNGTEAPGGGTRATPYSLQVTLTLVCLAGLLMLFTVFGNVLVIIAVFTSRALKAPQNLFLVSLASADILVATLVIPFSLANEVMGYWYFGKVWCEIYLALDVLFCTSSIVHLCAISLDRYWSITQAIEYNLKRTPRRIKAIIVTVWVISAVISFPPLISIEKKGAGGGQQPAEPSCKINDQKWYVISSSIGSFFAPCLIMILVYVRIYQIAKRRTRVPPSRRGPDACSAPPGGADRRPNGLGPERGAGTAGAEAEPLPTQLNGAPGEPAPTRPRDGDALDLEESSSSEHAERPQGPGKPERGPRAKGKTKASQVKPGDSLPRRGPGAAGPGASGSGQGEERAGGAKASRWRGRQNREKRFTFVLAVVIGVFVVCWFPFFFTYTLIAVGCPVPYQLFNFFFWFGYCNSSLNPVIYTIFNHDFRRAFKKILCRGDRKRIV

[2] = biological target: D(2) dopamine receptor (Rattus norvegicus, UniProt P61169); assay: Antagonistic affinity against rat striatum Dopamine receptor D2; assay type: functional, tissue-based
[3] = biological target: T2, Alpha-1D adrenergic receptor (Rattus norvegicus, UniProt P23944); assay: Antagonistic affinity against Alpha-1D adrenergic receptor was determined in isolated thoracic aorta from rat; assay type: functional, tissue-based; details: read-out: pA2 (converted)
T2 sequence (P23944 whole entry): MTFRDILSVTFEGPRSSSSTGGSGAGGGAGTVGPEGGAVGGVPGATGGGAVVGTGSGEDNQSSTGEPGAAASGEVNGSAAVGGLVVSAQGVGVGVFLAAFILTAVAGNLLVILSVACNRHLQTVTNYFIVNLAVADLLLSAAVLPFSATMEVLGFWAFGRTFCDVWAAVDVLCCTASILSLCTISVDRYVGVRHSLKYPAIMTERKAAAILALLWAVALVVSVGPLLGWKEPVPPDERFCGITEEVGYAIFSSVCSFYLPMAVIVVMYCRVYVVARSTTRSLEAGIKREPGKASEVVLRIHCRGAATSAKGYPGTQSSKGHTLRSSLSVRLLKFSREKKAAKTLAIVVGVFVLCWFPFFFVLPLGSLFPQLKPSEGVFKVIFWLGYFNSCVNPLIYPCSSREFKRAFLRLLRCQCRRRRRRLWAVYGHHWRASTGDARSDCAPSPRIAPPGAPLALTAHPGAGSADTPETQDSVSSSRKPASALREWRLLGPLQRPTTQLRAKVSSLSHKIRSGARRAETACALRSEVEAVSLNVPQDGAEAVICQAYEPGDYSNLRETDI

[4] = biological target: T3, Alpha-1A adrenergic receptor (Rattus norvegicus, UniProt P43140); assay: Antagonistic affinity against Alpha-1A adrenergic receptor was determined in isolated prostatic vas deferens tissue from rat; assay type: functional, tissue-based; details: read-out: pA2 (converted)
T3 sequence (P43140 whole entry): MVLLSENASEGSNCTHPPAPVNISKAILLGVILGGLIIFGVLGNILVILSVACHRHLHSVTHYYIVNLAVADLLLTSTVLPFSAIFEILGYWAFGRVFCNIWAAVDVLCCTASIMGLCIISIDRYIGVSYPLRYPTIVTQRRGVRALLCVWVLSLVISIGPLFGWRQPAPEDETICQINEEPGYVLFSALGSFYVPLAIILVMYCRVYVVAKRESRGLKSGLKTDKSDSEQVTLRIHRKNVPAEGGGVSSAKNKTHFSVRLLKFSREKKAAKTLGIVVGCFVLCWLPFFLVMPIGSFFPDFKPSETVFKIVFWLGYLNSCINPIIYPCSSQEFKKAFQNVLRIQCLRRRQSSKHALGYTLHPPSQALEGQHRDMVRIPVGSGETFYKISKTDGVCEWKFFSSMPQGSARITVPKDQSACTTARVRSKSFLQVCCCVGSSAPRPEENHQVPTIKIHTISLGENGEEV

[5] = biological target: T4, 5-hydroxytryptamine receptor 1A (Homo sapiens, UniProt P08908); assay: Antagonistic affinity against cloned human 5-hydroxytryptamine 1A receptor; assay type: functional
T4 sequence (P08908 whole entry): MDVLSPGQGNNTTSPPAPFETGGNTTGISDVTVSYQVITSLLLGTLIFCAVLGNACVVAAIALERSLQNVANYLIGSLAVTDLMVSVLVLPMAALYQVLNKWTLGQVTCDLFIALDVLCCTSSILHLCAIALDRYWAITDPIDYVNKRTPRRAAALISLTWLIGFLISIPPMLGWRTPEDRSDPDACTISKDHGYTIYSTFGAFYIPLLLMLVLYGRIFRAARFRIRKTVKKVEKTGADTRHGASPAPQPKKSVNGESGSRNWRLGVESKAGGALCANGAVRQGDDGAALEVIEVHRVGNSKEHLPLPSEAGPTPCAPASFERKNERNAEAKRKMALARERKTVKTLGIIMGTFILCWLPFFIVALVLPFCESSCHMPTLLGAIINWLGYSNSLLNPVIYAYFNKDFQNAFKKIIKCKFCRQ

[6] = biological target: T5, Alpha-1B adrenergic receptor (Rattus norvegicus, UniProt P15823); assay: Antagonistic affinity against Alpha-1B adrenergic receptor was determined in isolated spleen tissue from rat; assay type: functional, tissue-based; details: read-out: pA2 (converted)
T5 sequence (P15823 whole entry): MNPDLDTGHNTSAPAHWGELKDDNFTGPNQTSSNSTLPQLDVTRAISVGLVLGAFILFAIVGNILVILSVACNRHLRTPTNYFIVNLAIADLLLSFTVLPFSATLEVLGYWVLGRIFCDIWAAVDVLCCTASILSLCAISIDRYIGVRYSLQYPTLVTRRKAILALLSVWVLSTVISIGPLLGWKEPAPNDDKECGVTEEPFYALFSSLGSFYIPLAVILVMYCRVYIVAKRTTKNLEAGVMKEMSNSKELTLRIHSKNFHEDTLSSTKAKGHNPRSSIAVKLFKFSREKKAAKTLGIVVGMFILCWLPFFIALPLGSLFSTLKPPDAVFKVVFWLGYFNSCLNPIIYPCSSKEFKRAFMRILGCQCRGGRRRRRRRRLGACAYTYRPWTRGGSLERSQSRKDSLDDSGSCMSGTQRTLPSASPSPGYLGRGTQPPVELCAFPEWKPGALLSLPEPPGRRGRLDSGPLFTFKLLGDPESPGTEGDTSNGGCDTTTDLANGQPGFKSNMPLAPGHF

Sequence of D(2) dopamine receptor (P61169 whole entry): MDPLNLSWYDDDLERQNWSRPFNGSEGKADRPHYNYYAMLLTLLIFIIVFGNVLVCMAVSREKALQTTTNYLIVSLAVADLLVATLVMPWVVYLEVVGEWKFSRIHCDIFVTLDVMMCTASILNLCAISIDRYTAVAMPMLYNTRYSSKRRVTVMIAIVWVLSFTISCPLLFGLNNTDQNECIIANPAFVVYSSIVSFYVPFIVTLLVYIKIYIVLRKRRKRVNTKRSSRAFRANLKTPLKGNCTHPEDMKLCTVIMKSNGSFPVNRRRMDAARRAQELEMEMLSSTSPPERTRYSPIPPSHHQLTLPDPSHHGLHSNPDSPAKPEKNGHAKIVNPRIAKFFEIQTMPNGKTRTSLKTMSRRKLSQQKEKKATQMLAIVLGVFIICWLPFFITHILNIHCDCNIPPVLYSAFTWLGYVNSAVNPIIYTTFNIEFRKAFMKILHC

| SMILES | Log Ki [1] | Ki [2] | Kb [3] | Kb [4] | Ki [5] | Kb [6] |
| --- | --- | --- | --- | --- | --- | --- |
| COc1cc2nc(N(C)CCCCCCN(C)C(=O)c3ccco3)nc(N)c2cc1OC | -7 | 2340 nM | 0.646 nM | 0.912 nM | > 1000 nM | 0.145 nM |
| COc1cc2nc(N(C)CCSSCCN(C)C(=O)c3ccco3)nc(N)c2cc1OC | -6.23 |  | 2.88 nM | 29.5 nM | > 1000 nM | 32.4 nM |
| COc1cc2nc(NCCSSCCNC(=O)c3ccco3)nc(N)c2cc1OC |  |  | 45.7 nM | 1780 nM |  | 115 nM |
| COc1ccccc1N1CCN(CCN2C(=O)CC3(CCCC3)CC2=O)CC1.Cl.Cl | -5.98 | 47.9 nM |  |  | 1.74 nM | 28.2 nM |
| COc1cc2nc(N3CCN(C(=O)c4ccco4)[C@H]4CCCC[C@H]43)nc(N)c2cc1OC [CYCLAZOSIN] | -6.13 | 8320 nM |  | 33.1 nM | > 1000 nM |  |
| COc1cc2nc(N3CCN(C(=O)c4ccco4)CC3)nc(N)c2cc1OC [PRAZOSIN] |  | > 10000 nM |  |  |  |  |
